# In patent US3991202A, “Imidazolium salts” (Janssen Pharmaceutica N.V., priority 1974, dated 1976):
# Key:
# Type in all cases: cell-based
# [1] = system: Staphylococcus hemolyticus; test: Antibacterial growth inhibition in phenol red dextrose broth; conditions: 168 h, Staph., tested at 100, 10, 1 μg/ml, read-out: Concentration in μ g for 100% Growth Inhibition
# Description: (§1) The tests on bacteria were performed on cultures on phenol red dextrose broth medium (Difco). By using decimal dilution techniques described for the tests for antifungal activity, test media containing 100 μg, 10 μg and 1 μg of imidazolium salt per milliliter of medium were obtained. The inoculum consisted of a platinum loop (5 mm diameter) from a 24 hour broth culture. Forty-eight hours after incubation, subcultures were made from each culture for the determination of antibacterial activity of the imidazolium salts. After seven days of incubation, observations were made to determine the presence or absence of bacterial growth.
# Pseudomonas aeruginosa = test: as above; conditions: 168 h, Ps. aer., tested at 100, 10, 1 μg/ml, read-out: Concentration in μ g for 100% Growth Inhibition
# Description: as §1
# Erysipelothrix insidiosa = test: as above; conditions: Erysipelothrix rhusiopathiae, 168 h; E. ins.; tested at 100, 10, 1 μg/ml; read-out: Concentration in μ g for 100% Growth Inhibition
# Description: as §1
# Streptococcus pyogenes = test: as above; conditions: 168 h, Strep., tested at 100, 10, 1 μg/ml, read-out: Concentration in μ g for 100% Growth Inhibition
# Description: as §1
# Escherichia coli = test: as above; conditions: 168 h, E. coli, tested at 100, 10, 1 μg/ml, read-out: Concentration in μ g for 100% Growth Inhibition
# Description: as §1
# [2] = system: Salmonella pullorum gallinarum; test: as above; conditions: Salmonella enterica, 168 h; Sp. G.; tested at 100, 10, 1 μg/ml; read-out: Concentration in μ g for 100% Growth Inhibition
# Description: as §1
# Trichophyton rubrum = test: Antifungal growth inhibition in Sabouraud's liquid medium; conditions: Trichophyton rubrum, 336 h; Tr.r.; tested at 100, 10, 1 μg/ml; read-out: Concentrations in μg/ml for 100% Inhibition of Growth
# Description: (§2) Tests for the control of fungal organisms were performed using Sabouraud's liquid medium (1 g. of neopeptone Difco and 2 g. of glucose Difco per 100 ml. distilled water) in test tubes, each containing 4.5 ml. of liquid medium, autoclaved at 120° C for 15 minutes. The imidazolium salts were prepared for testing by dissolving in 50% ethanol to a concentration of 20 mg./ml. and thereafter diluting with sterile distilled water to obtain a concentration of 10 mg./ml. Successive decimal dilutions were then made with sterile distilled water to prepare a series of test solutions. In carrying out the test, 0.5 ml. of one of the test solutions is added to 4.5 ml. of Sabouraud's liquid medium to obtain a test medium. In this manner, from appropriate test solution, test media containing 100 μg, 10 μg and 1 μg of imidazolium salt per milliliter of medium were obtained.
# (§3) Control tubes were prepared by adding 0.5 ml. of sterile distilled water to 4.5 ml. of medium. Ethanol was also added to simulate the amount which would be present in the test media. Filamentous fungi were incubated at 25° C for two to three weeks. A square block of side 2 mm. was excised and inoculated into the liquid medium. A 3-day old culture on Sabouraud's liquid medium was used for yeasts. The inoculum was 0.05 ml. per tube. All cultures were incubated at 25° C for 14 days.
# Cryptococcus neoformans = test: as above; conditions: Cryptococcus neoformans, 336 h; Cr.n.; tested at 100, 10, 1 μg/ml; read-out: Concentrations in μg/ml for 100% Inhibition of Growth
# Description: as §2, §3
# [3] = system: Ctenomyces mentagrophytes; test: as above; conditions: Trichophyton mentagrophytes, 336 h; Ct.m.; tested at 100, 10, 1 μg/ml; read-out: Concentrations in μg/ml for 100% Inhibition of Growth
# Description: as §2, §3
# Microsporum canis = test: as above; conditions: Microsporum canis, 336 h; M.c.; tested at 100, 10, 1 μg/ml; read-out: Concentrations in μg/ml for 100% Inhibition of Growth
# Description: as §2, §3
Structure (SMILES),MIC [1] [µg/mL],MIC (Pseudomonas aeruginosa) [µg/mL],MIC (Erysipelothrix insidiosa) [µg/mL],MIC (Streptococcus pyogenes) [µg/mL],MIC (Escherichia coli) [µg/mL],MIC [2] [µg/mL],MIC (Trichophyton rubrum) [µg/mL],MIC (Cryptococcus neoformans) [µg/mL],MIC [3] [µg/mL],MIC (Microsporum canis) [µg/mL]
Fc1ccc(C(c2ccccc2)[n+]2ccn(CC(OCc3ccc(Cl)cc3Cl)c3ccc(Cl)cc3Cl)c2)cc1 (stereo not drawn),1,100,1,1,10,10,–,–,–,–
"Clc1ccc(Cn2cc[n+](CC(OCc3c(Cl)cccc3Cl)c3ccc(Cl)cc3Cl)c2)c(Cl)c1.[Cl-] (stereo not drawn) [1-(2,4-Dichlorobenzyl)-3-[2,4-dichloro-β-(2,6-dichlorobenzyloxy)phenethyl]imidazolium chloride]",1,100,1,1,10,10,–,–,–,–
"Cc1ccccc1NC(=O)C[n+]1ccn(CC(OCc2c(Cl)cccc2Cl)c2ccc(Cl)cc2Cl)c1 (stereo not drawn) [1-[2,4-dichloro-β-(2,6-dichlorobenzyloxy)phenethyl]-3-(N-o-tolylcarbamoylmethyl)imidazolium chloride]",10,100,10,1,100,10,–,–,–,–
"O=C(C[n+]1ccn(CC(OCc2c(Cl)cccc2Cl)c2ccc(Cl)cc2Cl)c1)Nc1ccc(F)cc1 (stereo not drawn) [1-[2,4-dichloro-β-(2,6-dichlorobenzyloxy)phenethyl]-3-[N-(p-fluorophenyl)carbamoylmethyl]imidazolium chloride]",1,100,1,1,10,10,–,–,–,–
"O.OC(C[n+]1ccn(CC(OCc2ccc(Cl)cc2)c2ccc(Cl)cc2Cl)c1)c1ccc(Cl)cc1.[Br-] (stereo not drawn) [2,4(Cl)2C6H3/CH2C6H4pCl/CH2CHOHC6H4pCl, 1-[β-(p-Chlorobenzyloxy)-2,4-dichlorophenethyl]-3-(p-chloro-β-hydroxyphenethyl)imidazolium bromide hydrate]",1,100,1,1,10,10,–,–,–,–
"O=C(C[n+]1ccn(CC(OCc2ccc(Cl)cc2)c2ccc(Cl)cc2Cl)c1)c1ccc(F)cc1.[Cl-] (stereo not drawn) [2,4(Cl)2C6H3/CH2C6H4pCl/CH2COC6H4pF, 1-[2,4-Dichloro-β-(p-chlorobenzyloxy)phenethyl]-3-(p-fluorophenacyl)imidazolium chloride]",1,100,1,1,100,10,–,–,–,–
"Fc1ccc(CC[n+]2ccn(CC(OCc3ccc(Cl)cc3Cl)c3ccc(Cl)cc3Cl)c2)cc1.O.[Br-] (stereo not drawn) [(CH2)2C6H4pF, 1-[2,4-Dichloro-β-(2,4-dichlorobenzyloxy)phenethyl]-3-(p-fluorophenethyl)imidazolium bromide hydrate]",1,100,10,1,100,10,–,–,–,–
"COc1ccc(CC[n+]2ccn(CC(OCc3ccc(Cl)cc3Cl)c3ccc(Cl)cc3Cl)c2)cc1.[Cl-] (stereo not drawn) [(CH2)2C6H4pOCH3, 1-[2,4-dichloro-β-(2,4-dichlorobenzyloxy)phenethyl]-3-(p-methoxyphenethyl)imidazolium chloride]",1,100,1,1,100,10,–,–,–,–
"Clc1ccc(COC(Cn2cc[n+](CCc3ccccc3)c2)c2ccc(Cl)cc2Cl)c(Cl)c1.[Br-] (stereo not drawn) [(CH2)2C6H5, 1-[2,4-Dichloro-β-(2,4-dichlorobenzyloxy)phenethyl]-3-phenethylimidazolium bromide]",1,100,1,1,10,10,–,–,–,–
"O=C(CCn1cc[n+](CC(OCc2ccc(Cl)cc2Cl)c2ccc(Cl)cc2Cl)c1)Nc1ccccc1Cl.[Cl-] (stereo not drawn) [(CH2)2CONHC6H4oCl, 1-{2-[N-(o-Chlorophenyl)carbamoyl]ethyl}-3-[2,4-dichloro-β-(2,4-dichlorobenzyloxy)phenethyl]imidazolium chloride]",1,100,1,1,10,10,–,–,–,–
"O=C(Cn1cc[n+](CC(OCc2ccc(Cl)cc2Cl)c2ccc(Cl)cc2Cl)c1)c1ccc(Cl)cc1Cl.[Cl-] (stereo not drawn) [CH2COC6H32,4(Cl)2, 1-(2,4-dichlorobenzoylmethyl)-3-[2,4-dichloro-β-(2,4-dichlorobenzyloxy)phenethyl]imidazolium chloride]",–,–,–,–,–,–,1,1,1,10
"COc1cccc(NC(=O)C[n+]2ccn(CC(OCc3ccc(Cl)cc3Cl)c3ccc(Cl)cc3Cl)c2)c1 (stereo not drawn) [CH2CONHC6H4m(OCH3), hydrate]",–,–,–,–,–,–,1,10,10,10
"O=C(C[n+]1ccn(CC(OCc2ccc(Cl)cc2Cl)c2ccc(Cl)cc2Cl)c1)Nc1ccccc1Cl (stereo not drawn) [CH2CONHC6H4oCl, 1-[N-(o-chlorophenyl)carbamoylmethyl]-3-[2,4-dichloro-β-(2,4-dichlorobenzyloxy)phenethyl]imidazolium chloride]",–,–,–,–,–,–,1,10,10,10
"O=C(C[n+]1ccn(CC(OCc2ccc(Cl)cc2Cl)c2ccc(Cl)cc2Cl)c1)Nc1ccccc1Oc1ccccc1 (stereo not drawn) [CH2CONHC6H4oOPh, 1-[2,4-dichloro-β-(2,4-dichlorobenzyloxy)phenethyl]-3-[N-(o-phenoxyphenyl)carbamoylmethyl]imidazolium chloride hydrate]",–,–,–,–,–,–,1,100,10,1
"O=C(C[n+]1ccn(CC(OCc2ccc(Cl)cc2Cl)c2ccc(Cl)cc2Cl)c1)NCc1ccccc1Cl (stereo not drawn) [CH2CONHCH2C6H4oCl, 1-[N-(o-Chlorobenzyl)carbamoylmethyl]3-[2,4-dichloroβ-(2,4-dichlorobenzyloxy)phenethyl]imidazolium chloride]",–,–,–,–,–,–,1,100,10,1
Fc1ccc(C(c2ccc(Cl)cc2)[n+]2ccn(CC(OCc3ccc(Cl)cc3Cl)c3ccc(Cl)cc3Cl)c2)cc1 (stereo not drawn) [drawing 61],–,–,–,–,–,–,1,100,10,10
"CCCCCCCC[n+]1ccn(CC(OCc2ccc(Cl)cc2Cl)c2ccc(Cl)cc2Cl)c1.[Br-] (stereo not drawn) [nC8H17, 1-[2,4-dichloro-β-(2,4-dichlorobenzyloxy)phenethyl]3-n-octylimidazolium bromide]",–,–,–,–,–,–,1,100,10,10
"O=C(C[n+]1ccn(CC(OCc2ccc(Cl)cc2)c2ccc(Cl)cc2)c1)c1ccc(F)cc1 (stereo not drawn) [pClC6H4/CH2C6H4pCl/CH2COC6H4pF, 1-[p-Chloro-β-(p-chlorobenzyloxy)phenethyl]-3-(p-flurophenacyl)imidazolium chloride]",–,–,–,–,–,–,10,10,10,10
"O=C(C[n+]1ccn(CC(OCc2ccc(Cl)cc2Cl)c2ccc(Cl)cc2)c1)c1ccc(F)cc1.[Cl-] (stereo not drawn) [pClC6H4/CH2C6H32,4(Cl)2/CH2COC6H4pF, 1-[p-chloro-β-(2,4-dichlorobenzyloxy)phenethyl]-3-(p-fluorophenacyl)imidazolium chloride]",–,–,–,–,–,–,10,10,10,10
